Among the test systems are KM12 colon; SK-MEL-5 melanoma; LXFL 529 NSCLC; MALME-3M melanoma; HCC-2998 colon; UACC-62 melanoma; OVCAR-4 ovarian; NCI-H460 lung; UO-31 renal; HOP-92 NSCLC.
Assay in all cases: NCI-60 cell line screen, 48 h

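Method: 48-hour compound exposure of cells in 96-well plates, five concentrations, linear interpolation of endpoints. TGI marks complete inhibition of growth.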 Where only a bound is given, the exact number is not on record here.

Consider `CCOP(=O)(Cc1ccc(CP(=O)(OCC)OCC)n1C)OCC`, for which the TGI with KM12 colon, in the assay on SK-MEL-5 melanoma, in the assay on LXFL 529 NSCLC, with MALME-3M melanoma, in the assay on HCC-2998 colon and in the assay on UACC-62 melanoma was over 100 µM in each case. The TGI with OVCAR-4 ovarian, with NCI-H460 lung, in the assay with UO-31 renal and in the assay with HOP-92 NSCLC was over 100 µM each time.
As to `S=C(N/N=C/c1ccco1)NC12CC3CC(CC(C3)C1)C2`, the TGI in the assay on KM12 colon, in the assay on SK-MEL-5 melanoma, in the assay with LXFL 529 NSCLC, in the assay on MALME-3M melanoma, in the assay on HCC-2998 colon and in the assay with UACC-62 melanoma was over 100 µM each time. Besides, the TGI with OVCAR-4 ovarian, with NCI-H460 lung, in the assay on UO-31 renal and in the assay on HOP-92 NSCLC was over 100 µM throughout.
For `CC1OC(n2cc(F)c(=O)[nH]c2=O)C=CC1O` (centres undefined), the TGI with KM12 colon, in the assay on SK-MEL-5 melanoma, in the assay on LXFL 529 NSCLC, with MALME-3M melanoma, in the assay on HCC-2998 colon and with UACC-62 melanoma was over 100 µM each time. The TGI with OVCAR-4 ovarian, in the assay on NCI-H460 lung, with UO-31 renal and in the assay on HOP-92 NSCLC was over 100 µM throughout.
As to `COc1ccc(OC)c(NC(=O)C(=O)NNC(=O)c2sc(NNC(C)=O)nc2C)c1`, the TGI with KM12 colon is over 100 µM; with SK-MEL-5 melanoma it was over 100 µM; in the assay on LXFL 529 NSCLC it was 81.6 µM; in the assay on MALME-3M melanoma it was over 100 µM; in the assay with HCC-2998 colon, over 100 µM; in the assay with UACC-62 melanoma, 81.5 µM. Besides, the TGI with OVCAR-4 ovarian was 71.2 µM; in the assay with NCI-H460 lung, over 100 µM; with UO-31 renal, over 100 µM; in the assay with HOP-92 NSCLC it was 39.2 µM.
`O=C1c2ccccc2C2(Br)C(=O)c3ccccc3C12` (centres undefined): the TGI with KM12 colon, with SK-MEL-5 melanoma, in the assay with LXFL 529 NSCLC, with MALME-3M melanoma, in the assay on HCC-2998 colon and in the assay on UACC-62 melanoma was over 100 µM throughout. The TGI with OVCAR-4 ovarian, in the assay on NCI-H460 lung, in the assay on UO-31 renal and in the assay on HOP-92 NSCLC was over 100 µM each time.
Turning to `COC(=O)C(C(=O)C(=O)Nc1cccc(OC)c1)c1cnc2ccccc2n1` (centres undefined), the TGI with KM12 colon, with SK-MEL-5 melanoma, with LXFL 529 NSCLC, in the assay with MALME-3M melanoma, in the assay with HCC-2998 colon and in the assay with UACC-62 melanoma was over 100 µM in each case. Further, the TGI in the assay on OVCAR-4 ovarian, in the assay with NCI-H460 lung, in the assay with UO-31 renal and with HOP-92 NSCLC was over 100 µM in each case.
For `O=C1CN=C(C[N+](=O)[O-])c2ccccc21`, the TGI in the assay with KM12 colon, in the assay with SK-MEL-5 melanoma, with LXFL 529 NSCLC, in the assay on MALME-3M melanoma, in the assay on OVCAR-4 ovarian and in the assay on NCI-H460 lung was over 100 µM throughout. For the same compound, the TGI in the assay with UO-31 renal and in the assay with HOP-92 NSCLC was over 100 µM throughout.
As to `COC(=O)C1=C(C)N(NC(=O)c2ccccc2)C(C)(O)C12CCOC2=O` (centres undefined), the TGI in the assay with KM12 colon is over 100 µM; in the assay on LXFL 529 NSCLC it was over 100 µM; in the assay with MALME-3M melanoma, 1.86 µM; with HCC-2998 colon it was over 100 µM; in the assay with UACC-62 melanoma, over 100 µM; in the assay with OVCAR-4 ovarian, over 100 µM. The TGI with NCI-H460 lung and in the assay with UO-31 renal was over 100 µM each time.
For `Cc1ccc(SC(C)/C=C/NNC2=NC(c3ccccc3)C(c3ccccc3)=NN2)cc1` (centres undefined), the TGI was over 100 µM with KM12 colon; 31.4 µM with SK-MEL-5 melanoma; over 100 µM in the assay on LXFL 529 NSCLC; over 100 µM in the assay on MALME-3M melanoma; 98.2 µM in the assay with HCC-2998 colon; 48.7 µM in the assay on UACC-62 melanoma. The TGI is over 100 µM in the assay on OVCAR-4 ovarian, over 100 µM with NCI-H460 lung, 57.5 µM in the assay with UO-31 renal and 66.1 µM with HOP-92 NSCLC.
For the compound `Cc1ccccc1N1C(=O)/C(=C/c2ccc(N(CCC#N)CCC#N)cc2)N=C1c1cc([N+](=O)[O-])ccc1Cl`, the TGI with KM12 colon, with SK-MEL-5 melanoma, in the assay with LXFL 529 NSCLC, in the assay with MALME-3M melanoma, with HCC-2998 colon and in the assay with UACC-62 melanoma was over 100 µM each time. The TGI in the assay on OVCAR-4 ovarian, with NCI-H460 lung and in the assay on UO-31 renal was over 100 µM each time.
Consider `O=C(Nc1nc2ncn(CCI)c2c(=O)[nH]1)c1ccccc1`, for which the TGI in the assay on KM12 colon, in the assay on SK-MEL-5 melanoma, with LXFL 529 NSCLC, in the assay on MALME-3M melanoma, with HCC-2998 colon and with UACC-62 melanoma was over 100 µM in each case. Further, the TGI in the assay with OVCAR-4 ovarian was over 100 µM; in the assay with NCI-H460 lung, over 100 µM; in the assay with UO-31 renal, over 100 µM; in the assay with HOP-92 NSCLC it was 81 µM.
As for `C=C(CCCCC)CN1CCCC1[C@@](C)(O)CC(=O)OCC` (some centres undefined), the TGI in the assay with KM12 colon, in the assay on SK-MEL-5 melanoma, in the assay on LXFL 529 NSCLC, in the assay on MALME-3M melanoma, with HCC-2998 colon and in the assay with UACC-62 melanoma was over 100 µM throughout. The TGI with OVCAR-4 ovarian, with NCI-H460 lung, in the assay on UO-31 renal and in the assay with HOP-92 NSCLC was over 100 µM each time.
For `CS(=O)(=O)N/N=C/CN1C(=O)c2ccccc2C1=O`, the TGI in the assay with KM12 colon, in the assay on SK-MEL-5 melanoma, in the assay on LXFL 529 NSCLC, in the assay with MALME-3M melanoma, in the assay on HCC-2998 colon and with UACC-62 melanoma was over 100 µM each time. The TGI in the assay on OVCAR-4 ovarian, in the assay on NCI-H460 lung and in the assay on UO-31 renal was over 100 µM each time.
Regarding `CCCCOC(=O)C1C(c2ccc(Cl)cc2)NC(c2ccc(Cl)cc2)C(C(=O)OCCCC)S1(=O)=O` (centres undefined), the TGI in the assay on KM12 colon, with SK-MEL-5 melanoma, with LXFL 529 NSCLC, in the assay with MALME-3M melanoma, in the assay with HCC-2998 colon and with UACC-62 melanoma was over 100 µM throughout. Moreover, the TGI in the assay on OVCAR-4 ovarian, with NCI-H460 lung, in the assay on UO-31 renal and in the assay on HOP-92 NSCLC was over 100 µM throughout.

(Values after PubChem BioAssay (NCI).)
